# In publication PMC6273687, “Design, Synthesis and Biological Evaluation of Novel Primaquine-Cinnamic Acid Conjugates of the Amide and Acylsemicarbazide Type” (Molecules, 2016):
# Tests used:
# [1] = tested on: CEM acute lymphoblastic leukemia cell line; assay: Growth inhibition of tumor cell lines in vitro (MTT / cell counting); assay type: cell-based; settings: Homo sapiens, 96 h, 4 days
# Description: (§1) The experiments were carried out on a murine lymphocytic leukemia cell line (L1210) and five human tumor cell lines: CEM, HeLa, NCI-H460, SW 620 and MCF-7. The cells were cultured as monolayers and maintained in Dulbecco′s modified Eagle medium (DMEM) supplemented with 10% fetal bovine serum (FBS), 2 mM L-glutamine, 100 U/mL penicillin and 100 μg/mL streptomycin in a humidified atmosphere with 5% CO2 at 37 °C.
# (§2) The growth inhibition activity of the compounds was assessed as described previously. The cell lines were inoculated onto a series of standard 96-well microtiter plates on day 0, at 1.5 × 10^4 cells/mL (SW 620, H460) to 2.5 × 10^4 cells/mL (MCF-7, CEM and L1210), depending on the growth of the tumor cell line. Test agents were then added in ten-fold dilutions (10^−8 to 10^−4 M) and the cell cultures were then incubated for 3–4 days with 5% CO2 at 37 °C. Working dilutions of the compounds were freshly prepared on the day of testing.
# (§3) After 3 (MCF-7, SW 620, NCI-H460) or 4 days (CEM, L1210), the cell growth rate was evaluated first light microscopically, then by viable cell counting and/or by performing the MTT assay, which detects dehydrogenase activity in live, not dead, cells. The absorbance (A) was measured on a microplate reader at 570 nm. The absorbance is directly proportional to the number of living, metabolically active cells. […] If however, all of the tested concentrations produce PGs exceeding the respective reference level of effect (e.g., PG value of 50), then the highest tested concentration is assigned as the default value, which is preceded by a “>” sign. Minimum two individual experiments were carried out and each test point was performed in quadruplicate.
# [2] = tested on: HeLa cervical carcinoma cell line; assay: as above; assay type: cell-based; settings: Homo sapiens
# Description: as §1, §2, §3
# [3] = tested on: L1210 murine lymphocytic leukemia cell line; assay: as above; assay type: cell-based; settings: Mus musculus, 96 h; L1210, 4 days
# Description: as §1, §2, §3
# [4] = tested on: NCI-H460 lung carcinoma cell line; assay: as above; assay type: cell-based, human; settings: Homo sapiens, 72 h; NCI-H460, 3 days
# Description: as §1, §2, §3
# [5] = tested on: colon carcinoma HCT 116; assay: Growth inhibition of tumor cell lines in vitro (reference drugs); assay type: cell-based; settings: Homo sapiens; colon carcinoma HCT 116 (footnote b, printed in SW 620 column)
# [6] = tested on: SW 620 colon carcinoma cell line; assay: Growth inhibition of tumor cell lines in vitro (MTT / cell counting); assay type: cell-based; settings: Homo sapiens, 72 h; SW 620, 3 days
# Description: as §1, §2, §3
# [7] = tested on: MCF-7 breast carcinoma cell line; assay: as above; assay type: cell-based, human; settings: Homo sapiens, MCF7, 72 h; MCF-7, 3 days
# Description: as §1, §2, §3
# [8] = Interaction with the stable radical DPPH (reducing ability)
# Description: To a solution of DPPH in absolute ethanol the appropriate volume of the compounds (50 or 100 µM final concentrations) dissolved in DMSO was added. The absorbance was recorded at 517 nm after 20 and 60 min at room temperature. The experiments were repeated at least in triplicate and the standard deviation of absorbance was less than 10% of the mean. NDGA was used under the same experimental conditions as a reference compound.
# [9] = target: T1, soybean lipoxygenase (LOX) (Glycine max, UniProt P08170); assay: LOX inhibition study in vitro; assay type: biochemical; settings: values in parentheses in Table 3
# T1 construct: purchased Sigma-Aldrich
# T1 sequence (P08170 1-839): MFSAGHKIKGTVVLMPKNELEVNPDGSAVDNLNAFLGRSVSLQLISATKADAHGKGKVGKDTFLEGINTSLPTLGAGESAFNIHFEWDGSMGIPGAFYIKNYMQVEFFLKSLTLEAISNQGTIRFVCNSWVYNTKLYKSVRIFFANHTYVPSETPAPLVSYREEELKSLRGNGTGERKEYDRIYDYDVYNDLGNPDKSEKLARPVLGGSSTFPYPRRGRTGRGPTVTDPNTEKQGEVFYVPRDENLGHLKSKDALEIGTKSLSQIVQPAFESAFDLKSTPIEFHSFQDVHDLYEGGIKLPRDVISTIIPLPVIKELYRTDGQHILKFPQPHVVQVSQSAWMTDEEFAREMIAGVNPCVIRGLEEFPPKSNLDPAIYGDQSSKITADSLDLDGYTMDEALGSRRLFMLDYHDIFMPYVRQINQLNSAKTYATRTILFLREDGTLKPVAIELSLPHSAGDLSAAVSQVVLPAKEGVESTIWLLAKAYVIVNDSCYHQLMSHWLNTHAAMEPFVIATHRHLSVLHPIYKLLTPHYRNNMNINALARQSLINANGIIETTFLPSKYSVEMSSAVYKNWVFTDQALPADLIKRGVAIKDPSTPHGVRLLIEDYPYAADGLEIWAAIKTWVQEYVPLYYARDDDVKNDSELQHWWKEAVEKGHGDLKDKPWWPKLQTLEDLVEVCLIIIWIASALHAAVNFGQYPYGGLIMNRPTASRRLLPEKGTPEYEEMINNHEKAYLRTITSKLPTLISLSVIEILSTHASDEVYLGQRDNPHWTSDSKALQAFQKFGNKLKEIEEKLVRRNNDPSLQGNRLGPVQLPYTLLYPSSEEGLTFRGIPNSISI
# Description: LOX inhibitory assay in vitro was accomplished as described previously. The test compounds (stock solutions 10 mM in DMSO) were incubated at room temperature with sodium linoleate (c = 0.1 mM) and 0.2 mL of LOX enzyme solution (1/9 × 10^−4 m/V in saline). The conversion of sodium linoleate to 13-hydroperoxylinoleic acid was measured at 234 nm and compared with the reference inhibitor. Several concentrations were used for the IC50 determination.
# [10] = Inhibition of linoleic acid peroxidation (AAPH-induced); settings: 5 × 10^−5 M
# Description: For initiating the lipid peroxidation free radical AAPH was used. Final solution in the UV cuvette consisted of 10 μL linoleate sodium solution (c = 16 mM), 0.93 mL phosphate buffer (c = 0.05 M), pH 7.4, thermostated at 37 °C. 50 μL AAPH solution (c = 40 mM) and 10 μL of the tested compounds were added. The experiment was performed at 37 °C under air. The oxidation of linoleic acid sodium salt was monitored at 234 nm. The assays were repeated at least in triplicate and the standard deviation of absorbance was less than 10% of the mean. Trolox was used under the same experimental conditions as a reference compound.
# [11] = tested on: HEL cells; assay: Cytotoxicity assay, alteration of HEL cell morphology (MCC); assay type: cell-based, human; settings: 3 days
# Description: Cytotoxicity measurements were based on the inhibition of HEL cell growth. Cells were seeded at 5 × 10^3 cells/well into 96-well microtiter plates. Then, medium containing different concentrations of the test compounds was added. After 3 days of incubation at 37 °C, the alteration of morphology of the cell cultures was recorded light microscopically. Cytotoxicity was expressed as MCC.
# [12] = tested on: lung adenocarcinoma A549; assay: Growth inhibition of tumor cell lines in vitro (reference drug); assay type: cell-based; settings: Homo sapiens; lung adenocarcinoma A549 (footnote c, printed in NCI-H460 column)
SMILES,IC50 [1],IC50 [2],IC50 [3],IC50 [4],IC50 [5],IC50 [6],IC50 [7],"DPPH-reducing ability RA (%) ([8]; 1 × 10^−4 M, 20 min)","DPPH-reducing ability RA (%) ([8]; 1 × 10^−4 M, 60 min)","DPPH-reducing ability RA (%) ([8]; 5 × 10^−5 M, 20 min)","DPPH-reducing ability RA (%) ([8]; 5 × 10^−5 M, 60 min)",IC50 [9],LP Inhibition (%) [10],MCC (minimum cytotoxic concentration) [11],IC50 [12]
"O=c1[nH]cc(F)c(=O)[nH]1 [5-FU, 5-fluorouracil, reference compound]",18 ± 5 µM,0.54 ± 0.1 µM,0.5 ± 0.2 µM,3 ± 0.3 µM,4 ± 0.7 µM,–,–,–,–,–,–,–,–,–,–
"COc1ccc(/C=C/C(=O)NNC(=O)NCCCC(C)Nc2cc(OC)cc3cccnc23)cc1 (stereo not shown) [7c, (E)-1-(3-(4-Methoxyphenyl)acryloyl)-4-(4-(6-methoxyquinolin-8-ylamino)pentyl)semicarbazide]",1.3 ± 0.7 µM,2.4 ± 0.2 µM,1.7 ± 0.4 µM,> 100 µM,–,> 100 µM,0.4 ± 0.2 µM,39%,100%,54%,100%,50 µM,89%,around 20 μΜ,–
"COc1cc(NC(C)CCCNC(=O)NNC(=O)/C=C/c2ccc(Cl)cc2)c2ncccc2c1 (stereo not shown) [7g, (E)-1-(3-(4-Chlorophenyl)acryloyl)-4-(4-(6-methoxyquinolin-8-ylamino)pentyl)semicarbazide]",0.9 ± 0.7 µM,2.7 ± 1.2 µM,1.6 ± 0.7 µM,20 ± 0.7 µM,–,21 ± 4 µM,0.2 ± 0.2 µM,100%,100%,66%,100%,70 µM,89%,around 20 μΜ,–
"COc1cc(NC(C)CCCN)c2ncccc2c1 (stereo not shown) [PQ, primaquine]",–,–,–,30 ± 7 µM,20 ± 6 µM,–,28 ± 10 µM,–,–,–,–,–,–,–,–
"CNC(=O)c1cc(Oc2ccc(NC(=O)Nc3ccc(Cl)c(C(F)(F)F)c3)cc2)ccn1 [SOR, sorafenib, reference compound]",3.2 ± 1.7 µM,7.1 ± 2.6 µM,4.2 ± 2.4 µM,–,–,7.1 ± 1.9 µM,3.9 ± 1.6 µM,–,–,–,–,–,–,–,6.1 ± 0.6 µM
